Results from patent US7525011B2, “Transgenic cancer models in fish” (Dana-Farber Cancer Institute, priority 2002, dated 2009).

How the values were obtained:
zebrafish embryos = assay: 96-well plate embryo survival assay; format: in vivo; settings: 1% DMSO in egg water, 5- to 8-day old embryos
Procedure: Next it was determined if 5- to 8-day old zebrafish embryos are able to survive in 96 well plates, and what […] of water was necessary to attain high levels of survival. Six-day old zebrafish embryos were allocated to wells in a 96 well plate. Three to four embryos were grown in 250, 150, and 100 μl of egg water with and without 1% DMSO and analyzed daily for mortality.

MYC-ER = settings: in the presence of tamoxifen; by 300 days of development; CD2-MYC-ER mouse models; cited from earlier work

Row | SMILES | effect on embryo survival (zebrafish embryos) | offspring developing tumors (MYC-ER)
1 | C[S+](C)[O-] [DMSO] | no significant effect | –
2 | CC/C(=C(\c1ccccc1)c1ccc(OCCN(C)C)cc1)c1ccccc1 [tamoxifen] | – | 62%
